Experiments:
Conditions in all cases: 48 h
NOMO1 [1] = experiment: AUC of viability dose-response curve (% viability x log10 dose units); higher = less sensitive
Outline: (§1)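 Viability of medium-adapted leukemia cells was measured by CellTiter-Glo One luminescence after 48 h at 37°C with library compounds in DMSO. Doses were 11 threefold steps from 47 μM to 0.79 nM, in 1536-well plates at 500 or 1000 cells/well. Signals were normalised per plate to DMSO and cell-free wells and fitted with a four-parameter log-logistic model on log10 dose. Area under the curve was integrated by trapezoidal rule, with curves exceeding full viability scaled and failed quality-control curves removed.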

SEM cells [2] = experiment: as above
Outline: as §1

P12-Ichikawa [3] = experiment: as above
Outline: as §1

NOMO1 [4] = experiment: cell viability relative to DMSO control; higher = less cytotoxic
Outline: (§2)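 Viability is a per-plate percentage relative to DMSO wells, with cell-free wells as background. CellTiter-Glo One luminescence was read after 48 h at 37°C on 1536-well plates (5 μl) of NOMO1 or SEM (500 cells/well) or P12-Ichikawa (1000 cells/well) leukemia cells. The cells had been adapted for at least four passages in each medium and pin-dosed with library compounds in DMSO from 47 μM to 0.79 nM in 11 threefold steps.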

SEM cells [5] = experiment: as above
Outline: as §2

P12-Ichikawa [6] = experiment: as above
Outline: as §2

[7] = RPMI 5 mM glucose + 10% dialyzed FBS
[8] = HPLM + 10% dialyzed FBS, 0.000781 µM
[9] = HPLM + 10% dialyzed FBS, 0.00234 µM
[10] = HPLM + 10% dialyzed FBS, 0.00702 µM
[11] = HPLM + 10% dialyzed FBS, 0.0211 µM
[12] = HPLM + 10% dialyzed FBS, 0.0632 µM
[13] = HPLM + 10% dialyzed FBS, 0.19 µM
[14] = HPLM + 10% dialyzed FBS, 0.569 µM
[15] = HPLM + 10% dialyzed FBS, 1.71 µM
[16] = HPLM + 10% dialyzed FBS, 5.12 µM
[17] = HPLM + 10% dialyzed FBS, 15.4 µM
[18] = HPLM + 10% dialyzed FBS, 46.1 µM
[19] = RPMI 5 mM glucose + 10% FBS, 0.000781 µM
[20] = RPMI 5 mM glucose + 10% FBS, 0.00234 µM
[21] = RPMI 5 mM glucose + 10% FBS, 0.00702 µM
[22] = RPMI 5 mM glucose + 10% FBS, 0.0211 µM
[23] = RPMI 5 mM glucose + 10% FBS, 0.0632 µM
[24] = RPMI 5 mM glucose + 10% FBS, 0.19 µM
[25] = RPMI 5 mM glucose + 10% FBS, 0.569 µM
[26] = RPMI 5 mM glucose + 10% FBS, 1.71 µM
[27] = RPMI 5 mM glucose + 10% FBS, 5.12 µM
[28] = RPMI 5 mM glucose + 10% FBS, 15.4 µM
[29] = RPMI 5 mM glucose + 10% FBS, 46.1 µM
[30] = RPMI 5 mM glucose + 10% dialyzed FBS, 0.000781 µM
[31] = RPMI 5 mM glucose + 10% dialyzed FBS, 0.00234 µM
[32] = RPMI 5 mM glucose + 10% dialyzed FBS, 0.00702 µM
[33] = RPMI 5 mM glucose + 10% dialyzed FBS, 0.0211 µM
[34] = RPMI 5 mM glucose + 10% dialyzed FBS, 0.0632 µM
[35] = RPMI 5 mM glucose + 10% dialyzed FBS, 0.19 µM
[36] = RPMI 5 mM glucose + 10% dialyzed FBS, 0.569 µM
[37] = RPMI 5 mM glucose + 10% dialyzed FBS, 1.71 µM
[38] = RPMI 5 mM glucose + 10% dialyzed FBS, 5.12 µM
[39] = RPMI 5 mM glucose + 10% dialyzed FBS, 15.4 µM
[40] = RPMI 5 mM glucose + 10% dialyzed FBS, 46.1 µM

Structure (SMILES): N[S+](=O)([O-])OC[C@@H]1C[C@@H](n2ccc3c(N[C@H]4CCc5ccccc54)ncnc32)C[C@@H]1O
- AUC of viability dose-response curve (NOMO1 [1]; HPLM + 10% dialyzed FBS): 319
- AUC of viability dose-response curve (NOMO1 [1]; RPMI 5 mM glucose + 10% FBS): 300
- AUC of viability dose-response curve (NOMO1 [1]; [7]): 313
- AUC of viability dose-response curve (SEM cells [2]; HPLM + 10% dialyzed FBS): 352
- AUC of viability dose-response curve (SEM cells [2]; RPMI 5 mM glucose + 10% FBS): 346
- AUC of viability dose-response curve (SEM cells [2]; [7]): 339
- AUC of viability dose-response curve (P12-Ichikawa [3]; HPLM + 10% dialyzed FBS): 373
- AUC of viability dose-response curve (P12-Ichikawa [3]; RPMI 5 mM glucose + 10% FBS): 352
- AUC of viability dose-response curve (P12-Ichikawa [3]; [7]): 352
- cell viability (NOMO1 [4]; [8]): 103%
- cell viability (NOMO1 [4]; [9]): 118%
- cell viability (NOMO1 [4]; [10]): 114%
- cell viability (NOMO1 [4]; [11]): 111%
- cell viability (NOMO1 [4]; [12]): 110%
- cell viability (NOMO1 [4]; [13]): 107%
- cell viability (NOMO1 [4]; [14]): 70.8%
- cell viability (NOMO1 [4]; [15]): 26.6%
- cell viability (NOMO1 [4]; [16]): 16.6%
- cell viability (NOMO1 [4]; [17]): 14.3%
- cell viability (NOMO1 [4]; [18]): 18.7%
- cell viability (NOMO1 [4]; [19]): 96.2%
- cell viability (NOMO1 [4]; [20]): 110%
- cell viability (NOMO1 [4]; [21]): 92.4%
- cell viability (NOMO1 [4]; [22]): 113%
- cell viability (NOMO1 [4]; [23]): 118%
- cell viability (NOMO1 [4]; [24]): 92.6%
- cell viability (NOMO1 [4]; [25]): 57.7%
- cell viability (NOMO1 [4]; [26]): 12.4%
- cell viability (NOMO1 [4]; [27]): 10.8%
- cell viability (NOMO1 [4]; [28]): 8.04%
- cell viability (NOMO1 [4]; [29]): 8.01%
- cell viability (NOMO1 [4]; [30]): 111%
- cell viability (NOMO1 [4]; [31]): 97.4%
- cell viability (NOMO1 [4]; [32]): 104%
- cell viability (NOMO1 [4]; [33]): 104%
- cell viability (NOMO1 [4]; [34]): 121%
- cell viability (NOMO1 [4]; [35]): 103%
- cell viability (NOMO1 [4]; [36]): 59.8%
- cell viability (NOMO1 [4]; [37]): 26.7%
- cell viability (NOMO1 [4]; [38]): 18.5%
- cell viability (NOMO1 [4]; [39]): 13%
- cell viability (NOMO1 [4]; [40]): 10.8%
- cell viability (SEM cells [5]; [8]): 96.3%
- cell viability (SEM cells [5]; [9]): 98.3%
- cell viability (SEM cells [5]; [10]): 104%
- cell viability (SEM cells [5]; [11]): 94.2%
- cell viability (SEM cells [5]; [12]): 105%
- cell viability (SEM cells [5]; [13]): 122%
- cell viability (SEM cells [5]; [14]): 101%
- cell viability (SEM cells [5]; [15]): 53.1%
- cell viability (SEM cells [5]; [16]): 27.8%
- cell viability (SEM cells [5]; [17]): 14.2%
- cell viability (SEM cells [5]; [18]): 7.9%
- cell viability (SEM cells [5]; [19]): 101%
- cell viability (SEM cells [5]; [20]): 121%
- cell viability (SEM cells [5]; [21]): 119%
- cell viability (SEM cells [5]; [22]): 101%
- cell viability (SEM cells [5]; [23]): 101%
- cell viability (SEM cells [5]; [24]): 117%
- cell viability (SEM cells [5]; [25]): 113%
- cell viability (SEM cells [5]; [26]): 48.4%
- cell viability (SEM cells [5]; [27]): 24.5%
- cell viability (SEM cells [5]; [28]): 10.3%
- cell viability (SEM cells [5]; [29]): 8.49%
- cell viability (SEM cells [5]; [30]): 90.8%
- cell viability (SEM cells [5]; [31]): 95.4%
- cell viability (SEM cells [5]; [32]): 95.7%
- cell viability (SEM cells [5]; [33]): 92.1%
- cell viability (SEM cells [5]; [34]): 97.3%
- cell viability (SEM cells [5]; [35]): 111%
- cell viability (SEM cells [5]; [36]): 103%
- cell viability (SEM cells [5]; [37]): 35.8%
- cell viability (SEM cells [5]; [38]): 23.8%
- cell viability (SEM cells [5]; [39]): 12.1%
- cell viability (SEM cells [5]; [40]): 8.74%
- cell viability (P12-Ichikawa [6]; [8]): 95.1%
- cell viability (P12-Ichikawa [6]; [9]): 102%
- cell viability (P12-Ichikawa [6]; [10]): 110%
- cell viability (P12-Ichikawa [6]; [11]): 102%
- cell viability (P12-Ichikawa [6]; [12]): 113%
- cell viability (P12-Ichikawa [6]; [13]): 118%
- cell viability (P12-Ichikawa [6]; [14]): 116%
- cell viability (P12-Ichikawa [6]; [15]): 82.2%
- cell viability (P12-Ichikawa [6]; [16]): 38.3%
- cell viability (P12-Ichikawa [6]; [17]): 16.1%
- cell viability (P12-Ichikawa [6]; [18]): 12.7%
- cell viability (P12-Ichikawa [6]; [19]): 107%
- cell viability (P12-Ichikawa [6]; [20]): 105%
- cell viability (P12-Ichikawa [6]; [21]): 107%
- cell viability (P12-Ichikawa [6]; [22]): 126%
- cell viability (P12-Ichikawa [6]; [23]): 108%
- cell viability (P12-Ichikawa [6]; [24]): 120%
- cell viability (P12-Ichikawa [6]; [25]): 116%
- cell viability (P12-Ichikawa [6]; [26]): 61.5%
- cell viability (P12-Ichikawa [6]; [27]): 31.2%
- cell viability (P12-Ichikawa [6]; [28]): 9.99%
- cell viability (P12-Ichikawa [6]; [29]): 8.16%
- cell viability (P12-Ichikawa [6]; [30]): 97.4%
- cell viability (P12-Ichikawa [6]; [31]): 111%
- cell viability (P12-Ichikawa [6]; [32]): 106%
- cell viability (P12-Ichikawa [6]; [33]): 110%
- cell viability (P12-Ichikawa [6]; [34]): 98.2%
- cell viability (P12-Ichikawa [6]; [35]): 106%
- cell viability (P12-Ichikawa [6]; [36]): 100%
- cell viability (P12-Ichikawa [6]; [37]): 54.1%
- cell viability (P12-Ichikawa [6]; [38]): 34.4%
- cell viability (P12-Ichikawa [6]; [39]): 12.3%
- cell viability (P12-Ichikawa [6]; [40]): 11.2%

— the supplement of paper PMC11451515
